From US8519002B2, “Colchicine solid complex; methods of making; and methods of use thereof” (Takeda Pharmaceuticals U.S.A., Inc., priority 2008, dated 2013)

Assays:
[1] = for hygroscopicity suggested by DVS data: 5% to 95% RH; for weight gain observed on the sorption step: DVS whole sorption step
Protocol: Samples ae not dried prior to analysis. Equilibrium criteria used for analysis were less than 0.0100% weight change in 5 minutes, with a maximum equilibration time of 3 hours if the weight criterion was not met. Data are not corrected for the initial moisture content of the samples. Sodium chloride and polyvinypyrrolidine are used as calibration standards.

[2] = 40° C./75% RH; for XRPD of stressed sample (solid form after stress): 4 days, result in words
[3] = DVS desorption, result in words

| Compound | hygroscopicity suggested by DVS data ([1]; result in words) | weight loss from 95 to 5% RH ([1]; DVS desorption) | weight gain from 5 to 95% RH ([1]; DVS sorption, 5 to 95% RH) | weight loss upon equilibration at 5% RH ([1]; DVS sorption, equilibration at 5% RH) | weight gain observed on the sorption step [1] | net weight loss after sorption and desorption ([1]; DVS, desorption versus sorption) | net weight gain after 4 days [2] | XRPD of stressed sample (solid form after stress) [2] | weight loss from 75 to 5% RH ([1]; DVS desorption, 75 to 5% RH) | weight loss from 95 to 75% RH ([1]; DVS desorption, 95 to 75% RH) | hysteresis upon desorption [1, 3] | weight gain from 5 to 75% RH ([1]; DVS sorption) | weight gain from 75 to 95% RH ([1]; DVS sorption, 75 to 95% RH (above 75% RH)) | Post DVS XRPD (solid form after DVS) ([1]; XRPD of sample after DVS) | behaviour of material in DVS (deliquescence) ([1]; DVS, upon desorption, result in words) | net weight loss after 4 days [2] |
| --- | --- | --- | --- | --- | --- | --- | --- | --- | --- | --- | --- | --- | --- | --- | --- | --- |
| COc1cc2c(c(OC)c1OC)-c1ccc(OC)c(=O)cc1[C@@H](NC(C)=O)CC2.Cc1ccc(S(=O)(=O)O)cc1 | not significantly hygroscopic | 0.5% weight loss from 95 to 5% RH | 0.4% weight gain from 5 to 95% RH | 0.01% weight loss upon equilibration at 5% RH | ~0.4% | ~0.01% | approximately 1.0% | unchanged |  |  |  |  |  |  |  |  |
| COc1cc2c(c(OC)c1OC)-c1ccc(OC)c(=O)cc1[C@@H](NC(C)=O)CC2.O=C(O)C[C@H](O)C(=O)O [colchicine malic acid co-crystal] | hygroscopic |  |  |  | approximately 22% |  | approximately 5.4% | remains unchanged | 9.6% weight loss from 75 to 5% RH | 15.0% weight loss from 95 to 75% RH | no hysteresis | 6.2% weight gain from 5 to 75% RH | 15.6% weight gain from 75 to 95% RH | Colchicine malic acid co-crystal |  |  |
| COc1cc2c(c(OC)c1OC)-c1ccc(OC)c(=O)cc1[C@@H](NC(C)=O)CC2.COc1cc2c(c(OC)c1OC)-c1ccc(OC)c(=O)cc1[C@@H](NC(C)=O)CC2.O=C(O)C(=O)O [colchicine oxalic acid co-crystal] | hygroscopic | 15.2% weight loss from 95 to 5% RH |  |  |  |  |  | colchicine oxalic acid co-crystal, but minor disorder and shifting of the peaks is observed |  |  | Significant hysteresis | 0.5% weight gain from 5 to 75% RH |  |  | deliquesces | approximately 6.7% |
